Results: PubChem BioAssay AID977613 (Broad Institute, 2014)
Active and inactive are the calls of the source. No rule for the calls is given here.

test system: Broad 7084-01 inhibitor HTS, set 2; assay: single-concentration hits, screen 7084 set 2 (AID 977613);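 also: host cells are infected with parasite promastigotes that become internalized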

Which active concentration does the source give for CC(=O)N1[C@H](C(=O)NCc2ccccc2Cl)[C@@H](CO)[C@@H]2Cn3c(ccc(-c4cncnc4)c3=O)[C@@H]21 here?
Its active concentration is > 10 µM (inactive).

O=C(NCc1ccccn1)[C@@H]1[C@@H](CO)[C@@H]2Cn3c(ccc(C4=CCCC4)c3=O)[C@H]1N2Cc1cccnc1 was tested. Which active concentration did it give?
Its active concentration is > 10 µM (inactive).

COc1ccc2c3c([nH]c2c1)[C@@H](CO)N(Cc1ccccc1F)CC31CN(CC2CC2)C1 was tested. Which active concentration did it give?
The active concentration was > 10 µM (inactive).

With COC(=O)[C@H]1[C@H](CO)[C@H]2Cn3c(ccc(-c4ccccc4OC)c3=O)[C@H]2N1C(=O)c1cnccn1 as the compound, how does the active concentration read?
Its active concentration is > 10 µM (inactive).

For O=C(c1ccccc1)N1CC(=O)N2[C@H](CO)[C@H](c3ccc(-c4ccccc4)cc3)[C@@H]2C1, which active concentration is on record?
Its active concentration is > 10 µM (inactive).

How did the active concentration turn out when COc1ccc(NC(=O)N2CC(=O)N3[C@H](CO)[C@H](c4ccc(Br)cc4)[C@H]3C2)cc1 was run?
The active concentration was > 10 µM (inactive).

For O=C(CN1CCOCC1)N1CCCCN2[C@H](CO)[C@@H](c3ccc(Br)cc3)[C@@H]2C1, which active concentration is on record?
The active concentration was > 10 µM (inactive).

How did the active concentration turn out when O=C(Nc1cc(F)ccc1F)N1CCCCN2[C@H](C1)[C@H](c1ccc(C3=CCCCC3)cc1)[C@@H]2CO was run?
Its active concentration is > 10 µM (inactive).

Which active concentration does the source give for CCC(=O)N1[C@H](CO)[C@H](c2ccccc2)C12CN(C(=O)c1ccc3c(c1)OCO3)C2 here?
Its active concentration is > 10 µM (inactive).

Which active concentration does the source give for COc1cccc(-c2ccc3c(c2)[C@H]2[C@H](CCN2S(=O)(=O)c2ccccc2C)[C@H](CO)N3)c1 here?
The active concentration was > 10 µM (inactive).

CN(C)CC(=O)N1[C@H](CO)[C@H](c2ccccc2-c2ccccc2F)[C@@H]1C#N was tested. Which active concentration did it give?
Its active concentration is > 10 µM (inactive).

How did the active concentration turn out when CC(=O)N1[C@@H](CO)[C@@H](c2ccc(C3=CCCC3)cc2)C12CN(C(=O)NC(C)C)C2 was run?
Its active concentration is > 10 µM (inactive).

With O=C(Nc1nccs1)[C@@H]1[C@@H](CO)[C@@H]2Cn3c(cccc3=O)[C@H]1N2C(=O)C1CCCC1 as the compound, how does the active concentration read?
The active concentration was > 10 µM (inactive).

How did the active concentration turn out when CC(C)NC(=O)N1CC2(C1)[C@H](c1ccccc1)[C@@H](CO)N2CCC(F)(F)F was run?
The active concentration was > 10 µM (inactive).

Which active concentration does the source give for C/C=C/c1ccc([C@H]2[C@H]3CN(S(=O)(=O)c4ccc(OC)cc4)CCCCN3[C@H]2CO)cc1 here?
The active concentration was > 10 µM (inactive).

For CC(C)(O)C#Cc1ccc([C@H]2[C@@H](CO)N3CCCCN(S(C)(=O)=O)C[C@@H]23)cc1, which active concentration is on record?
The active concentration was > 10 µM (inactive).

With O=C(C[C@H]1CC[C@@H]2[C@H](COC[C@H](O)CN2CCc2ccccc2)O1)NCc1ccc(F)cc1 as the compound, how does the active concentration read?
The active concentration was > 10 µM (inactive).

How did the active concentration turn out when O=C([C@@H]1N[C@@H]2c3ccc(-c4ccccc4F)c(=O)n3C[C@@H]2[C@H]1CO)N1CCc2ccccc2C1 was run?
The active concentration was > 10 µM (inactive).

Which active concentration does the source give for OC[C@@H]1[C@H](c2ccccc2)C2(CN(Cc3nccs3)C2)N1CCC(F)(F)F here?
The active concentration was > 10 µM (inactive).

C/C=C/c1ccc([C@@H]2[C@H](CO)N(C(=O)CC)C23CN(CCC(F)(F)F)C3)cc1 was tested. Which active concentration did it give?
Its active concentration is > 10 µM (inactive).

CCN1CC(=O)N2[C@H](CO)[C@@H](c3ccc(Br)cc3)[C@@H]2C1 was tested. Which active concentration did it give?
Its active concentration is > 10 µM (inactive).

COCC(=O)N1[C@@H]2CNc3ccccc3[C@@H]2[C@@H]1CO was tested. Which active concentration did it give?
Its active concentration is > 10 µM (inactive).

How did the active concentration turn out when COc1cccc(C(=O)Nc2ccc3c(c2)C(=O)N(C)[C@H]2CC[C@@H](CC(=O)NCCCN4CCOCC4)O[C@@H]2CO3)c1 was run?
Its active concentration is > 10 µM (inactive).

How did the active concentration turn out when O=C(C1CCOCC1)N1[C@@H](CO)[C@@H](c2ccccc2)C12CN(Cc1cccc(Cl)c1)C2 was run?
The active concentration was > 10 µM (inactive).

For O=C(Cc1ccncc1)N1CC(=O)N2[C@@H](CO)[C@H](c3ccc(Br)cc3)[C@@H]2C1, which active concentration is on record?
The active concentration was > 10 µM (inactive).

How did the active concentration turn out when O=C(C[C@H]1CC[C@@H]2[C@H](COC[C@@H](O)CN2C(=O)Nc2ccc(Cl)cc2)O1)NCC1CC1 was run?
Its active concentration is > 10 µM (inactive).

C/C=C/c1ccc([C@H]2[C@@H](CO)N(C(C)=O)C23CN(C(=O)c2ccc(F)cc2)C3)cc1 was tested. Which active concentration did it give?
The active concentration was > 10 µM (inactive).

For O=C(c1cnccn1)N1CC(=O)N2[C@H](CO)[C@@H](c3ccc(C#CC4CC4)cc3)[C@@H]2C1, which active concentration is on record?
The active concentration was > 10 µM (inactive).

Which active concentration does the source give for COCC(=O)N1CC[C@@H]2[C@H]1c1cc(-c3ccc(F)cc3)ccc1N(C)[C@@H]2CO here?
The active concentration was > 10 µM (inactive).

With CCCNC(=O)N1CC2(C1)[C@H](c1ccccc1)[C@@H](CO)N2Cc1cccc(Cl)c1 as the compound, how does the active concentration read?
The active concentration was > 10 µM (inactive).

For CN1CCN(C(=O)C[C@@H]2CC[C@H]3[C@@H](COC[C@@H](O)CN3C(=O)C3CC3)O2)CC1, which active concentration is on record?
Its active concentration is > 10 µM (inactive).

For CN(C)C(=O)C[C@@H]1CC[C@@H]2[C@H](COC[C@@H](O)CN2CC2CC2)O1, which active concentration is on record?
Its active concentration is > 10 µM (inactive).

With COc1ccc2c3c([nH]c2c1)[C@@H](CO)N(C(=O)Nc1c(C)noc1C)CC31CN(CC2CCOCC2)C1 as the compound, how does the active concentration read?
The active concentration was > 10 µM (inactive).

With CCCNC(=O)N1[C@H](C#N)[C@H](c2ccccc2-c2ccccc2F)[C@@H]1CO as the compound, how does the active concentration read?
The active concentration was > 10 µM (inactive).

For O=C(NCC(F)(F)F)[C@@H]1[C@@H](CO)[C@@H]2Cn3c(cccc3=O)[C@H]1N2CC1CCOCC1, which active concentration is on record?
Its active concentration is > 10 µM (inactive).

O=C(C[C@H]1CC[C@@H]2[C@H](COC[C@@H](O)CN2CC2CC2)O1)NCc1ccc(Cl)cc1 was tested. Which active concentration did it give?
The active concentration was > 10 µM (inactive).

Which active concentration does the source give for O=C(Nc1ccccc1)N1CC(=O)N2[C@H](C1)[C@@H](c1ccc(C#CC3CCCCC3)cc1)[C@@H]2CO here?
Its active concentration is > 10 µM (inactive).

How did the active concentration turn out when Cc1ccc(CN2CC(=O)N3[C@H](C2)[C@H](c2ccc(-c4ccccc4F)cc2)[C@@H]3CO)cc1 was run?
The active concentration was > 10 µM (inactive).

For O=C(c1ccc2c(c1)OCO2)N1C[C@H]2[C@@H](c3ccccc31)[C@@H](CO)N2C(=O)CC1CC1, which active concentration is on record?
Its active concentration is > 10 µM (inactive).

COc1ccccc1CN1[C@H](CO)[C@@H]2c3ccccc3N(C(=O)c3cccnc3)C[C@@H]21 was tested. Which active concentration did it give?
The active concentration was > 10 µM (inactive).

COc1ccc(C#Cc2ccc([C@H]3[C@H]4CN(C(=O)c5ccc(F)cc5)CC(=O)N4[C@H]3CO)cc2)cc1 was tested. Which active concentration did it give?
Its active concentration is > 10 µM (inactive).

CN(C)C(=O)C[C@H]1CC[C@@H]2[C@H](COC[C@@H](O)CN2C(=O)C2CC2)O1 was tested. Which active concentration did it give?
Its active concentration is > 10 µM (inactive).

CN1C[C@H]2[C@@H](c3ccccc31)[C@@H](CO)N2C(=O)Nc1cccc(F)c1 was tested. Which active concentration did it give?
The active concentration was > 10 µM (inactive).

For Cc1ccc(NC(=O)Nc2ccc3c(c2)C(=O)N(C)[C@@H]2CC[C@H](CC(=O)NCC(F)(F)F)O[C@@H]2CO3)cc1, which active concentration is on record?
The active concentration was > 10 µM (inactive).

Which active concentration does the source give for CN1C(=O)c2cc(NS(C)(=O)=O)ccc2OC[C@H]2O[C@@H](CC(=O)NC3CCCCC3)CC[C@@H]21 here?
Its active concentration is > 10 µM (inactive).

Which active concentration does the source give for OC[C@H]1[C@@H](c2ccc(C#CC3(O)CCCC3)cc2)[C@H]2CN(Cc3cncnc3)CCCCN21 here?
The active concentration was > 10 µM (inactive).

COc1cccc(-c2ccc([C@@H]3[C@@H](CO)N4C(=O)CNC[C@H]34)cc2)c1 was tested. Which active concentration did it give?
Its active concentration is > 10 µM (inactive).

How did the active concentration turn out when O=C(C1CCOCC1)N1CC(=O)N2[C@H](CO)[C@H](c3ccc(C#CCc4ccccc4)cc3)[C@@H]2C1 was run?
The active concentration was > 10 µM (inactive).

How did the active concentration turn out when CCCNC(=O)N1[C@H](CO)[C@H](c2ccccc2-c2ccccc2F)[C@@H]1C#N was run?
The active concentration was > 10 µM (inactive).

Which active concentration does the source give for C[C@@H](NC(=O)[C@@H]1[C@@H](CO)[C@@H]2Cn3c(cccc3=O)[C@H]1N2CCC(F)(F)F)c1ccccc1 here?
Its active concentration is > 10 µM (inactive).

Which active concentration does the source give for Cc1cccc(S(=O)(=O)N2CC[C@@H]3[C@H](CO)Nc4ccc(C#Cc5ccccc5F)cc4[C@@H]32)c1 here?
The active concentration was > 10 µM (inactive).
